From ChEMBL document CHEMBL5230122, “Natural products and other inhibitors of F1FO ATP synthase” (Eur J Med Chem, 2020)
Square brackets hold non-standard residues; d marks the D form. Peptide text beside a SMILES is read from it. * marks the point of attachment. X3 = CC(C)C[C@@H](CN1CCC[N+]2=C1CCC2)N*; Pip = O=C(O)[C@@H]1CCCCN1; Iva = CC[C@](C)(N)C(=O)O; Aib = CC(C)(N)C(=O)O; βAla = NCCC(=O)O

How the values were obtained:
[1] = Antiproliferative activity against human Keratinocyte assessed as inhibition of cell proliferation incubated for 2 days by Beckman Coulter analysis; assay type: functional, cell-based; conditions: 48 h
NCI-H292 = test: Anticancer activity against human NCI-H292 cells assessed as reduction in cell proliferation incubated for 48 hrs by Calcein AM and Pluronic F-127 staining based fluorescence plate reader analysis; assay type: functional; conditions: NCI-H292, 48 h
SNU-398 = test: Anticancer activity against human SNU-398 cells expressing high level of SALL4 assessed as reduction in cell viability incubated for 72 hrs by CellTiter-Glo assay; assay type: functional, cell-based; conditions: SNU-398, 72 h
Bos taurus = species: Bos taurus; test: Inhibition of bovine F0F1-ATPase at 50 uM
MDA-MB-231 = test: Antiproliferative activity against human MDA-MB-231 cells assessed as reduction in cell viability incubated for 48 hrs by MTT assay; assay type: functional, cell-based; conditions: MDA-MB-231, 48 h
MCF7 = test: Antiproliferative activity against human MCF7 cells assessed as reduction in cell viability incubated for 48 hrs by MTT assay; assay type: functional, cell-based; conditions: MCF7, 48 h
SMMC-7721 = test: Antiproliferative activity against human SMMC-7721 cells assessed as reduction in cell viability incubated for 48 hrs by MTT assay; assay type: functional, cell-based; conditions: SMMC-7721, 48 h
SW480 = test: Antiproliferative activity against human SW480 cells assessed as reduction in cell viability incubated for 48 hrs by MTT assay; assay type: functional, cell-based; conditions: SW480, 48 h
HL-60 = test: Antiproliferative activity against human HL-60 cells assessed as reduction in cell viability incubated for 48 hrs by MTT assay; assay type: functional, cell-based; conditions: HL-60, 48 h
A549 = test: Antiproliferative activity against human A549 cells assessed as reduction in cell viability incubated for 48 hrs by MTT assay; assay type: functional, cell-based; conditions: A549, 48 h

| IC50 (MCF7) [µM] | IC50 (SMMC-7721) [µM] | IC50 (SW480) [µM] | IC50 (HL-60) [µM] | IC50 (A549) [µM] | SMILES | also measured |
| --- | --- | --- | --- | --- | --- | --- |
|  |  |  |  |  | CN1C(=O)C(Cc2ccccc2-c2ccccc2)N=C(c2ccc(O)cc2)c2cc(Cl)ccc21 (stereo not given) | EC50 [1]: 2.2 µM |
|  |  |  |  |  | COC[C@@H](C[C@H]1O[C@@](O)(C[C@@H]2C[C@H](OC)CCC/C=C(C)/C=C/[C@@H](O[C@@H]3O[C@@H](C)[C@H](OC)[C@@H](O)[C@@H]3O)[C@H](C)/C=C(C)/C=C(C)/C=C(\C)C(=O)O2)[C@H](C)[C@@H](O)[C@H]1C)O[C@H]1C[C@](C)(O)[C@@H](O[C@H]2C[C@@H](OC)[C@H](O)[C@@H](C)O2)[C@H](C)O1 | IC50 (NCI-H292): 0.024 µM |
|  |  |  |  |  | CC[C@](C)(NC(=O)[C@@H]1CCCCN1C(=O)C(C)(C)NC(=O)[C@@H]1CCCCN1C(C)=O)C(=O)NC(C)(C)C(=O)N[C@@H](CC(C)C)C(=O)NCCC(=O)NCC(=O)NC(C)(C)C(=O)NC(C)(C)C(=O)N1CCCC[C@H]1C(=O)NC(C)(C)C(=O)N[C@@H](C)C(=O)N[C@@H](CC(C)C)C(=O)NC(C)(C)C(=O)N[C@@H](CC(C)C)CN1CCC[N+]2=C1CCC2 (Ac-[Pip][Aib][Pip][Iva][Aib]L[βAla]G[Aib][Aib][Pip][Aib]AL[Aib]-X3) | IC50 (SNU-398): 0.005 µM |
|  |  |  |  |  | CC(=O)Oc1ccc(/C=C/c2cc(OCCCC[P+](c3ccccc3)(c3ccccc3)c3ccccc3)cc(OC(C)=O)c2)cc1 | inhibition (Bos taurus): > 40% |
|  |  |  |  |  | COc1ccc(/C=C/c2cc(OC)cc(OCCCC[P+](c3ccccc3)(c3ccccc3)c3ccccc3)c2)cc1 | inhibition (Bos taurus): > 40% |
|  |  |  |  |  | COC[C@H](O)C[C@H]1O[C@@](O)(C[C@@H]2C[C@H](OC)CCC/C=C(C)/C=C/[C@@H](O[C@@H]3O[C@@H](C)[C@@H](OC)[C@@H](O)[C@@H]3O)[C@H](C)/C=C(C)/C=C(C)/C=C(\C)C(=O)O2)[C@H](C)[C@@H](O)[C@H]1C | IC50 (NCI-H292): > 1 µM |
|  |  |  |  |  | COc1cc(=O)oc(/C=C/C=C/C=C/[C@@H]2O[C@]3(C)[C@@H](OC(C)=O)[C@](C)(O[C@@H]3[C@@H](C)O)[C@H]2O)c1C | IC50 (MDA-MB-231): 0.08 µM |
| > 40 | > 40 | > 40 | > 40 | > 40 | COc1cc(/C=C/C=C/C=C/[C@]2(C)O[C@]3(C)[C@@H](O)[C@](C)(O[C@@H]3C)[C@H]2O)oc(=O)c1 |  |
| > 40 | > 40 | > 40 | > 40 | > 40 | CC[C@H]1O[C@@]2(C)[C@H](OCCC(=O)O)[C@@]1(C)O[C@@H](/C=C/C=C/C=C/c1oc(=O)cc(OC)c1C)[C@@H]2O |  |
|  |  |  |  |  | CC[C@H]1O[C@@]2(C)[C@H](O)[C@@]1(C)O[C@@H](/C=C/C=C/C=C/c1oc(=O)cc(OC)c1C)[C@@H]2O | IC50 (MDA-MB-231): 8.79 µM |
| > 40 | > 40 | > 40 | > 40 | > 40 | CC[C@H]1O[C@@]2(C)[C@H](O)[C@@]1(C)O[C@@H](CC(O)/C=C/C=C/c1oc(=O)cc(OC)c1C)[C@@H]2O (stereo not given in full) |  |
|  |  |  |  |  | COC[C@@H](C[C@H]1O[C@@](O)([C@H](O)[C@@H]2C[C@H](OC)[C@@H](O)CC/C=C(C)/C=C/[C@@H](O[C@@H]3O[C@@H](C)[C@H](OC)[C@@H](O)[C@@H]3O)[C@H](C)/C=C/C=C(C)/C=C(\C)C(=O)O2)[C@H](C)[C@@H](O)[C@H]1C)O[C@H]1C[C@](C)(O)[C@@H](O[C@H]2C[C@@H](OC)[C@H](O)[C@@H](C)O2)[C@H](C)O1 | IC50 (NCI-H292): 0.11 µM |
| > 40 | > 40 | > 40 | > 40 | > 40 | CC[C@H]1O[C@@]2(C)[C@H](OC(C)=O)[C@@]1(C)O[C@@H](C(O)/C=C/C(/C=C/c1oc(=O)cc(OC)c1C)OC)[C@@H]2O (stereo not given in full) |  |
|  |  |  |  |  | CC[C@@H]1O[C@@](C)(/C=C/C=C/C=C/c2cc(OC)c(C)c(=O)o2)[C@@H](O)[C@]1(C)O | IC50 (MDA-MB-231): > 50 µM |
| > 40 | 18.3 | 14.4 | > 40 | > 40 | CC[C@H]1O[C@@]2(C)[C@H](OC(C)=O)[C@@]1(C)O[C@@H](C(O)/C=C/C(O)/C=C/c1oc(=O)cc(OC)c1C)[C@@H]2O (stereo not given in full) |  |
| > 40 | > 40 | > 40 | > 40 | > 40 | CC[C@H]1O[C@@]2(C)[C@H](OC(C)=O)[C@@]1(C)O[C@@H](C(O)C(/C=C/C=C/c1oc(=O)cc(OC)c1C)OC)[C@@H]2O (stereo not given in full) |  |
